Data reported in PubChem BioAssay AID1919003 (Molecular Pharmacology Branch, DTP, NCI, 2023).
Several values for one entry are separate records, joined by “and”; a condition that tells them apart may be missing. Identical values can stand only once.

Tested on: 786-0 complex spheroids with HUVEC/MSC, growth % test/control
Assay: Anticancer human tumor 786-0 cell line growth inhibition [AhR];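 also: compound exposure lasted seven days before the read-out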
Details: for viability, T/C: stronger effect = lower value
Outline: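 Agents were dosed in half-log steps down from roughly clinical Cmax, or from 10 microM where Cmax was unknown, alone and with AhR antagonists. Read-out: percent test/control growth of tumor spheroids containing HUVEC and MSC stromal cells.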

[1] = curve of first compound, second compound 0.1 µM
[2] = curve of first compound, second compound 0.316 µM
[3] = curve of first compound, second compound 1 µM
[4] = curve of first compound, second compound 3.16 µM
[5] = curve of first compound, second compound 10 µM
[6] = second compound 0.1 µM, first compound 0.0316 µM
[7] = second compound 0.1 µM, first compound 0.1 µM
[8] = second compound 0.1 µM, first compound 0.316 µM
[9] = second compound 0.1 µM, first compound 1 µM
[10] = second compound 0.1 µM, first compound 3.16 µM
[11] = second compound 0.1 µM, first compound 10 µM
[12] = second compound 0.316 µM, first compound 0.0316 µM
[13] = second compound 0.316 µM, first compound 0.1 µM
[14] = second compound 0.316 µM, first compound 0.316 µM
[15] = second compound 0.316 µM, first compound 1 µM
[16] = second compound 0.316 µM, first compound 3.16 µM
[17] = second compound 0.316 µM, first compound 10 µM
[18] = second compound 1 µM, first compound 0.0316 µM
[19] = second compound 1 µM, first compound 0.1 µM
[20] = second compound 1 µM, first compound 0.316 µM
[21] = second compound 1 µM, first compound 1 µM
[22] = second compound 1 µM, first compound 3.16 µM
[23] = second compound 1 µM, first compound 10 µM
[24] = second compound 3.16 µM, first compound 0.0316 µM
[25] = second compound 3.16 µM, first compound 0.1 µM
[26] = second compound 3.16 µM, first compound 0.316 µM
[27] = second compound 3.16 µM, first compound 1 µM
[28] = second compound 3.16 µM, first compound 3.16 µM
[29] = second compound 3.16 µM, first compound 10 µM
[30] = second compound 10 µM, first compound 0.0316 µM
[31] = second compound 10 µM, first compound 0.1 µM
[32] = second compound 10 µM, first compound 0.316 µM
[33] = second compound 10 µM, first compound 1 µM
[34] = second compound 10 µM, first compound 3.16 µM
[35] = second compound 10 µM, first compound 10 µM

Compound	IC50 [1] [µM]	IC50 [2] [µM]	IC50 [3] [µM]	IC50 [4] [µM]	IC50 [5] [µM]	viability, T/C [6] [%]	viability, T/C [7] [%]	viability, T/C [8] [%]	viability, T/C [9] [%]	viability, T/C [10] [%]	viability, T/C [11] [%]	viability, T/C [12] [%]	viability, T/C [13] [%]	viability, T/C [14] [%]	viability, T/C [18] [%]	viability, T/C [19] [%]	viability, T/C [24] [%]	viability, T/C [25] [%]	viability, T/C [30] [%]	viability, T/C [31] [%]	other results
Nc1ccn(C2OC(CO)C(O)C2(F)F)c(=O)n1 (configuration not stated) + Cc1cncc(-c2nc(NCCc3c[nH]c4ccccc34)c3ncn(C(C)C)c3n2)c1	< 0.0316	< 0.0316	< 0.0316	< 0.0316	< 0.0316	6.61	6.32	4.8	5.2	8.48	7.97	7.89	7.93	6.11	6.44	6.22	2.07	1.87	0.4	0.29	viability, T/C [15]: 6.04%; viability, T/C [16]: 7.74%; viability, T/C [17]: 6.69%; viability, T/C [20]: 6.31%; viability, T/C [21]: 5.01%; viability, T/C [22]: 6.11%; viability, T/C [23]: 5.37%; viability, T/C [26]: 3.18%; viability, T/C [27]: 1.68%; viability, T/C [28]: 3.27%; viability, T/C [29]: 7.69%; viability, T/C [32]: 0.24%; viability, T/C [33]: 0.33%; viability, T/C [34]: 0.61%; viability, T/C [35]: 0.37%
COc1cc(C2c3cc4c(cc3C(OC3OC5COC(C)OC5C(O)C3O)C3COC(=O)C23)OCO4)cc(OC)c1O (configuration not stated) + Cc1ccccc1N=Nc1ccc(NC(=O)c2ccnn2C)c(C)c1	0.937	0.873	1.06	0.885	0.723	110	110	85.2	46.2	24.2	9.45	110	105	86.2	107	107	103	82.9	96.8	91.7	viability, T/C [15]: 41.6%; viability, T/C [16]: 27.5%; viability, T/C [17]: 10.3%; viability, T/C [20]: 81.4%; viability, T/C [21]: 50.4%; viability, T/C [22]: 26.8%; viability, T/C [23]: 10.3%; viability, T/C [26]: 78%; viability, T/C [27]: 46.4%; viability, T/C [28]: 21.1%; viability, T/C [29]: 7.16%; viability, T/C [32]: 68.4%; viability, T/C [33]: 42.6%; viability, T/C [34]: 19.4%; viability, T/C [35]: 7%
O=C(c1cc(Cc2n[nH]c(=O)c3ccccc23)ccc1F)N1CCN(C(=O)C2CC2)CC1 + Cc1cncc(-c2nc(NCCc3c[nH]c4ccccc34)c3ncn(C(C)C)c3n2)c1	> 10	> 10	> 10	> 10	< 0.0316	125	119	133	125	120	131	115	126	123	112	123	80.2	82.3	10.6	18	viability, T/C [15]: 126%; viability, T/C [16]: 128%; viability, T/C [17]: 120%; viability, T/C [20]: 112%; viability, T/C [21]: 112%; viability, T/C [22]: 121%; viability, T/C [23]: 108%; viability, T/C [26]: 82.8%; viability, T/C [27]: 85.1%; viability, T/C [28]: 79.3%; viability, T/C [29]: 77.9%; viability, T/C [32]: 9.64%; viability, T/C [33]: 16.9%; viability, T/C [34]: 15.3%; viability, T/C [35]: 13%
Cn1ncnc1C1c2n[nH]c(=O)c3cc(F)cc(c23)NC1c1ccc(F)cc1 (configuration not stated) + Cc1ccccc1N=Nc1ccc(NC(=O)c2ccnn2C)c(C)c1	> 0.1	> 0.1	> 0.1	> 0.1	> 0.1	101	107	–	–	–	–	110	111	–	99.7	110	88.9	91.2	95.3	112	viability, T/C (second compound 0.1 µM, first compound 0.000316 µM): 104%; viability, T/C (second compound 0.1 µM, first compound 0.001 µM): 102%; viability, T/C (second compound 0.1 µM, first compound 0.00316 µM): 107%; viability, T/C (second compound 0.1 µM, first compound 0.01 µM): 101%; viability, T/C (second compound 0.316 µM, first compound 0.000316 µM): 103%; viability, T/C (second compound 0.316 µM, first compound 0.001 µM): 106%; viability, T/C (second compound 0.316 µM, first compound 0.00316 µM): 106%; viability, T/C (second compound 0.316 µM, first compound 0.01 µM): 106%; viability, T/C (second compound 1 µM, first compound 0.000316 µM): 101%; viability, T/C (second compound 1 µM, first compound 0.001 µM): 106%; viability, T/C (second compound 1 µM, first compound 0.00316 µM): 108%; viability, T/C (second compound 1 µM, first compound 0.01 µM): 117%; viability, T/C (second compound 3.16 µM, first compound 0.000316 µM): 92.3%; viability, T/C (second compound 3.16 µM, first compound 0.001 µM): 105%; viability, T/C (second compound 3.16 µM, first compound 0.00316 µM): 92%; viability, T/C (second compound 3.16 µM, first compound 0.01 µM): 94%; viability, T/C (second compound 10 µM, first compound 0.000316 µM): 98.6%; viability, T/C (second compound 10 µM, first compound 0.001 µM): 112%; viability, T/C (second compound 10 µM, first compound 0.00316 µM): 90.5%; viability, T/C (second compound 10 µM, first compound 0.01 µM): 93.5%
CC[C@@]1(O)C(=O)OCc2c1cc1n(c2=O)Cc2cc3c(CN(C)C)c(O)ccc3nc2-1	–	–	–	–	–	–	–	–	–	–	–	–	–	–	–	–	–	–	–	–	viability, T/C (compound 0.000316 µM): 105% and 100% and 103%; viability, T/C (compound 0.001 µM): 97.3% and 102% and 104%; viability, T/C (compound 0.00316 µM): 96.1% and 107% and 98%; viability, T/C (compound 0.01 µM): 97.8% and 106% and 109%; viability, T/C (compound 0.0316 µM): 64.5% and 73.7% and 85.6%; viability, T/C (compound 0.1 µM): 16.4% and 21.4% and 16.1%; IC50 (curve of compound): 0.0447 µM and 0.0533 µM and 0.057 µM
